Experimental data from patent US20240368168A1, “SARM1 ENZYME ACTIVITY INHIBITOR AND APPLICATION THEREOF” (ARTIVILA BIOPHARMA, priority 2021, published 2024).

Experiments:
[1] = target: T1, dN-SARM1 protein (Homo sapiens, UniProt Q6SZW1); assay: In vitro biochemical assay for inhibiting SARM1 enzymatic activity (% inhibition rate), PC6 fluorescence method; details: 20 μM compound; 50 μM NAD, 50 μM PC6, 50 μM NMN activator
T1 construct: the N-terminal mitochondrial localization signal peptide of SARM1 was removed
T1 sequence (Q6SZW1 28-724): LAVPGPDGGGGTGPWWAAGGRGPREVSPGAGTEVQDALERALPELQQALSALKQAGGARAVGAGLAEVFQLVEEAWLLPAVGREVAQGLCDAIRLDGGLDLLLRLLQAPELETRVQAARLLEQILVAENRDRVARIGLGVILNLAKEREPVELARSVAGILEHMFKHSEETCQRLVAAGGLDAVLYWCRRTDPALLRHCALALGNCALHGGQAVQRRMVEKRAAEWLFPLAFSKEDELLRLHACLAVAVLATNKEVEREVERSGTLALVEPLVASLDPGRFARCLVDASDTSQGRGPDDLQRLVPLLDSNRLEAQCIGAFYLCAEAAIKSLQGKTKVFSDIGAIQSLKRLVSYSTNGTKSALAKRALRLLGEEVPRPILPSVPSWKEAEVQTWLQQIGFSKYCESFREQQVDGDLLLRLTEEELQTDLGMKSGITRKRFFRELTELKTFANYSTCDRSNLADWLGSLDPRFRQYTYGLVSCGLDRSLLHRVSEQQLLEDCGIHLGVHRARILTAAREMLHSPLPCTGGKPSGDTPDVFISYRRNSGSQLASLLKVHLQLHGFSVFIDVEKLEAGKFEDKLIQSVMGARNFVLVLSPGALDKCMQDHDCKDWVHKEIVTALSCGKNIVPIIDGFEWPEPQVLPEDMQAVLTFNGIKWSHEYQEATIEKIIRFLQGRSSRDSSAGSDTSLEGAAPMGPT
Method: The compounds were subjected to PC6 fluorescence method measurement [Chinese Patent 202010528147.3] using the dN-SARM1 protein obtained through “(4) Protein extraction” in “Expression and purification of SARM1 protein” in the above biological activity example 1.
First, 0.05 μg/ml dN-SARM1 and 20 μM compound were incubated in 50 mM Tris-HCl (pH 7.5) solution for 10 min, and then added with 50 μM NAD and 50 μM PC6 as substrate and 50 μM NMN as activator for 30 minutes of reaction at room temperature. The concentration of each component was the final concentration in the reaction system.
During the reaction, PC6 fluorescence spectrum dynamics were detected by a microplate reader, wherein the excitation wavelength and emission wavelength for detection were 390 nm and 520 nm, respectively. Finally, the reaction rate was used to express the activity of the protein. The higher the reaction rate, the stronger the activity of the protein and the lower the inhibitory efficiency of the compound.

[2] = target: T1, dN-SARM1 protein; assay: In vitro biochemical assay for inhibiting SARM1 enzymatic activity (IC50), PC6 fluorescence method; details: 50 μM NAD, 50 μM PC6, 50 μM NMN activator
How it was run: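 Activity read as the rate of PC6 fluorescence change (390 nm excitation, 520 nm emission) over a 30 min room-temperature reaction containing final 50 μM each of NAD, PC6 and NMN activator. Enzyme, 0.05 μg/ml dN-SARM1 in 50 mM Tris-HCl pH 7.5, first incubated 10 min with compound diluted serially from 200 μM; IC50 calculated.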

[3] = target: T2, SARM1 protein in iSARM1 (HEK293) cells (Homo sapiens, UniProt Q6SZW1); assay: Inhibitory activity in inducible SARM1 overexpressing cell line, intracellular cADPR level; assay type: cell-based; details: activator CZ-48 100 μM, cADPR content
T2 construct: The full-length SARM1 was synthesized into the pUC57 plasmid by WZ Biosciences Inc., and PCR was performed using pUC57-SARM1 as a DNA template
T2 sequence (Q6SZW1 28-724): T1 sequence (Q6SZW1 28-724)
How it was run: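 Inducible SARM1-overexpressing HEK293 cells preincubated 1.5 h with inhibitor (50 μM final), then activated with 100 μM CZ-48 for 16 h. Intracellular cADPR extracted with perchloric acid, NAD+ removed by NADase, and quantified by cyclase-coupled resazurin cycling assay (Ex/Em 544/599, 30 min kinetics) against cADPR standards; inhibition rate and IC50 calculated.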

SMILES | inhibition at 20 µM [1] [%] | IC50 [2] [µM] | EC50 [3] [µM]
CC(C)(C)OC(=O)N(c1ccccc1)c1ccc2ncc(-c3ccccc3)n2c1 [Compound 90] | > 90 | 1 to 10 | 1 to 10
FC(F)(F)c1ccc2ncc(-c3ccccc3)n2c1 [Compound 25] | > 90 | 1 to 10 | 1 to 10
